{
  "source": "patent US10034885B2",
  "about": "“Corneal thickness modulating agent” (KOWA COMPANY, LTD., priority 2014, dated 2018)",
  "key": {"[1]": {"molecular_target": "Rho kinase", "details": "disclosed in Patent Document 3; read-out: 50% inhibitory concentration (IC50) for Rho kinase; cited from earlier work"}, "[2]": {"system": "rabbit corneal endothelial cell", "details": "reported in Patent Document 1; cited from earlier work"}, "[3]": {"system": "cornea", "assay": "Change of thickness of cornea in human, long-term eyedrop administration test", "format": "in vivo", "protocol": "In a long-term administration test of Compound B in a subject having ophthalmologic disease, the influence on the cornea was examined (27-34 examples). In other words, in an group administered an eyedrop consisting of 0.4% Compound B twice a day for 52 weeks, the corneal thickness was measured using pachymeter before starting administration (week 0), 2 weeks after starting administration, 4 weeks after starting administration, and every 4 weeks thereafter. Measurement was performed five times, and the mean value calculated from the five measurements was adopted. In the measuring day, the drop was instilled in the eye at 9:00 and measurement was performed at 11:00. Note that at week 28, week 52, and during the follow-up (7-28 days after the last administration day), measurement was performed twice at 9:00 (at week 28 and week 52, it was done before the instillation) and 11:00. The upper part in FIG. 1 represents the result from the right eye, and the lower part in FIG. 1 represents the result from the left eye. The vertical axis represents changing values (μm) from week 0, and the horizontal axis represents the week for administration. At week 28, week 52, and during the follow-up (f/u), the measurement at 9:00 is represented with (0) and the measurement at 11:00 is represented with (2)."}, "[4]": {"molecular_target": "Rho kinase", "details": "according to Non-Patent Document 7; read-out: 50% inhibitory concentration (IC50) for Rho kinase; cited from earlier work"}},
  "note": "Read-outs that look alike come from different tables or passages of the source.",
  "data": [
    {"smiles": "CC1CNCCCN1S(=O)(=O)c1cccc2cncc(F)c12", "note": "(centres unmarked) [Compound A, 1-(4-fluoro-5-isoquinolinesulfonyl)-2-methyl-1,4-homopiperazine]", "values": [
      {"measurement": "IC50", "setting": "[1]", "result": 0.2, "unit": "µM"}
    ]},
    {"smiles": "O=S(=O)(c1cccc2cnccc12)N1CCCNCC1", "note": "[fasudil, 1-(5-isoquinolinesulfonyl)-1,4-homopiperazine]", "values": [
      {"measurement": "adhesive property of a rabbit corneal endothelial cell", "setting": "[2]", "result": "enhanced"}
    ]},
    {"smiles": "C[C@H]1CNCCCN1S(=O)(=O)c1cccc2cncc(F)c12", "note": "[Compound B, (S)-(−)-1-(4-fluoro-5-isoquinolinesulfonyl)-2-methyl-1,4-homopiperazine]", "values": [
      {"measurement": "thickness of the cornea during the period for administration", "setting": "[3]; human subjects with ophthalmologic disease, 0.4% eyedrop twice a day for 52 weeks, pachymeter, vs week 0", "result": "decreased"},
      {"measurement": "thickness of the cornea during the continued administration", "setting": "[3]; human, 0.4% eyedrop twice a day for 52 weeks", "result": "held at a nearly constant value"},
      {"measurement": "thickness of the cornea before instillation (0)", "setting": "[3]; human, week 28 and week 52, measured at 9:00 before instillation", "result": "had a tendency to return to the value before starting administration"},
      {"measurement": "thickness of the cornea 2 hours after instillation (2)", "setting": "[3]; human, week 28 and week 52, measured at 11:00", "result": "decreased"}
    ]},
    {"smiles": "C[C@@H](N)c1ccc(C(=O)Nc2ccnc3[nH]ccc23)cc1", "note": "[Compound Y-33983, (R)—(+)—N-(1H-pyrrolo[2,3-b]pyridin-4-yl)-4-(1-aminoethyl)benzamide]", "values": [
      {"measurement": "IC50", "setting": "[4]", "result": 0.0036, "unit": "µM"}
    ]},
    {"smiles": "CC(N)[C@H]1CC[C@H](C(=O)Nc2ccncc2)CC1", "note": "(single isomer, unassigned; (+)) [Compound Y-27632, (+)-trans-4-(1-aminoethyl)-1-(4-pyridylaminocarbonyl)cyclohexane]", "values": [
      {"measurement": "IC50", "setting": "[4]", "result": 0.11, "unit": "µM"}
    ]}
  ]
}
